Where a SMILES comes first, the peptide text is derived from it. [ ]: non-standard residue; d: D form. Tic = O=C(O)[C@@H]1Cc2ccccc2CN1; Abu = CC[C@H](N)C(=O)O
What was measured:
[1] = system: primordial follicles of ovarian cortex; assay: Culture of ewe ovarian cortex fragments for 10 days: start of growth of primordial follicles; assay type: cell-based; conditions: for start of growth of the primordial follicles: 10 days culture, vs control fragments; for number of primordial follicles over time / number of primary follicles: D0-D10
Method: Ovaries of adult ewes are collected immediately after slaughter. The ovaries are placed in an organ transport medium without serum (X-vivo, Bio Whittaker, Walkersville, Md., USA) at 10° C. and transported to the laboratory. Approximately 1 h after removal, the cortex is isolated from the medulla then fractionated into slices of 2 mm thickness (1 cm^2, average weight of 212 mg) after rinsing in new X-vivo. The cortex fragments are cultured in an oven under 5% oxygen for 10 days in well plates in the presence of DMEM. The medium is changed every 2 days.
The procedure used is the same as for Example 1, except that the somatostatin is replaced with one of its agonist analogues, namely the synthetic peptide of formula c[Tic-Tyr-DTrp-Lys-Abu-Phe] (hereafter AG1 peptide).
The procedure used is the same as for Example 1, except that the somatostatin is replaced by one of its antagonist analogues, namely the synthetic peptide of formula Cpa-c(DCys-3-Pal-DTrp-NMeLys-Thr-Cys)-2-Nal-NH2 (hereafter ANT1 peptide).

[2] = system: pituitary cells producing LH and FSH; preovulatory follicles; conditions: rats, in vivo administration; cited from earlier work
[3] = system: granulosa cells; conditions: in vitro, model of granulosa cells; cited from earlier work
[4] = system: granulosa cells; conditions: pig granulosa cells; cited from earlier work
[5] = system: preovulatory oocyte; conditions: pigs; cited from earlier work
[6] = system: granulosa cells from preovulatory follicles; conditions: women, in vitro; cited from earlier work
[7] = women, in vivo; cited from earlier work
[8] = co-administered with FSH; infertile patients with polycystic ovary syndrome; cited from earlier work
[9] = Envisaged case: patient with polycystic ovary syndrome treated with lanreotide acetate; assay type: in vivo, women; conditions: 120 mg/month

For `C[C@H](N)C(=O)NCC(=O)N[C@H]1CSSC[C@@H](C(=O)O)NC(=O)[C@H](CO)NC(=O)[C@H]([C@@H](C)O)NC(=O)[C@H](Cc2ccccc2)NC(=O)[C@H]([C@@H](C)O)NC(=O)[C@H](CCCCN)NC(=O)[C@H](Cc2c[nH]c3ccccc23)NC(=O)[C@H](Cc2ccccc2)NC(=O)[C@H](Cc2ccccc2)NC(=O)[C@H](CC(N)=O)NC(=O)[C@H](CCCCN)NC1=O` [SST14], the “start of growth of the primordial follicles” value ([1]; SST14 10^−9 M to 10^−6 M, FIGS. 1 and 2) was “very significantly inhibits”, the “number of primordial follicles over time” value ([1]; SST14 10^−9 M to 10^−6 M, FIG. 1) was “maintenance over time” and the “number of primary follicles” value ([1]; SST14 10^−9 M to 10^−6 M, FIG. 2) was “absence of increase”.

In the case of `C[C@H](N)C(=O)NCC(=O)N[C@H]1CSSC[C@@H](C(=O)O)NC(=O)[C@H](CO)NC(=O)[C@H]([C@@H](C)O)NC(=O)[C@H](Cc2ccccc2)NC(=O)[C@H]([C@@H](C)O)NC(=O)[C@H](CCCCN)NC(=O)[C@H](Cc2c[nH]c3ccccc23)NC(=O)[C@H](Cc2ccccc2)NC(=O)[C@H](Cc2ccccc2)NC(=O)[C@H](CC(N)=O)NC(=O)[C@H](CCCCN)NC1=O` [SST], the “number of pituitary cells producing LH and FSH and number of preovulatory follicles in the ovary” value [2] is listed as “seems to reduce”, the “aromatase and production of progesterone, stimulated by FSH” value [3] is listed as “inhibits” and the “increase in cAMP induced by LH and forskolin” value [4] is listed as “inhibits”. For the same compound, the “nuclear maturation of the preovulatory oocyte” value [5] was “seems to inhibit”, the “synthesis of IGF-BP1 and of progesterone” value [6] was “inhibiting” and the “secretion of LH by the pituitary, production of androgens and IGF-1 serum levels” value [7] was “capable of reducing”. The “serum levels of IGF-BP3” value [7] was “increases” and the “follicle growth induced by the administration of FSH” value [8] was “not however accompanied by a significant impact”.

In the case of `CC[C@@H]1NC(=O)[C@H](CCCCN)NC(=O)[C@@H](Cc2c[nH]c3ccccc23)NC(=O)[C@H](Cc2ccc(O)cc2)NC(=O)[C@@H]2Cc3ccccc3CN2C(=O)[C@H](Cc2ccccc2)NC1=O` [AG1 peptide, c[Tic-Tyr-DTrp-Lys-Abu-Phe]] (cyclo([Tic]Y[dW]K[Abu]F)), the “start of growth of the primordial follicles” value ([1]; AG1 peptide 10^−9 M, FIG. 4) is reported as “very significantly inhibits”, the “number of primary follicles” value ([1]; AG1 peptide 10^−9 M, FIG. 4) is reported as “absence of increase” and the “number of primordial follicles over time” value ([1]; AG1 peptide 10^−9 M, FIG. 4) is reported as “maintenance over time”.

In the case of `CC(C)[C@@H]1NC(=O)[C@H](CCCCN)NC(=O)[C@@H](Cc2c[nH]c3ccccc23)NC(=O)[C@H](Cc2ccc(O)cc2)NC(=O)[C@@H](NC(=O)[C@H](N)Cc2ccc3ccccc3c2)CSSC[C@@H](C(=O)N[C@H](C(N)=O)[C@@H](C)O)NC1=O` [lanreotide acetate], the “ovarian volume and number of antral follicles (ultrasound)” value ([9]; 4th month of treatment) is reported as “reduction”, the pregnancy test ([9]; 8th month of treatment) is reported as “positive” and the periods ([9]; after 3 months of treatment) is reported as “spontaneous periods”.

From patent US20070155659A1, “Use of somatostatin or one of its analogues for preparing a medicament intended to regulate the ovarian follicular reserve in non-menopausal women” (Societe de Conseils de Recherches et D'Application, priority 2003, published 2007)
